Biological target: T1, ALK 5 (Homo sapiens, UniProt P36897)
T1 sequence (P36897 34-503): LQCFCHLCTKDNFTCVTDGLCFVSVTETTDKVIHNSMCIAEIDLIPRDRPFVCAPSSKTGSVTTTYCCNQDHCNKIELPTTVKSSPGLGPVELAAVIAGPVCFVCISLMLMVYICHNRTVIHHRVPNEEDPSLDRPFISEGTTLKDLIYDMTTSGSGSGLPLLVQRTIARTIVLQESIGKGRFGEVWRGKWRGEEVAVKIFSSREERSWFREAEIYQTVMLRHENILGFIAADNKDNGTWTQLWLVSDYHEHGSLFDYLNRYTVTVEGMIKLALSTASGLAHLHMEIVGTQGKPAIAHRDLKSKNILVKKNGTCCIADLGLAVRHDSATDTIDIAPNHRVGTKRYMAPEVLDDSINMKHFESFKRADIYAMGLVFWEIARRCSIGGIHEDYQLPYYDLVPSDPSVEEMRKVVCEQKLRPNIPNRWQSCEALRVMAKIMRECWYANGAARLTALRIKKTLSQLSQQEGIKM
Experiment: In vitro kinase assay (ALK5 IC50, LanthaScreen Terbium labeled TR-FRET)
Assay type: biochemical
Conditions: TGF-β kinase 6 nM, ATP 10 μM, read-out: Enzyme Activity ALK 5 IC50
Protocol: Compounds of the invention were screened in an in vitro kinase assay against ALK 5, a members of the TGF-β family of Ser/Thr kinases. Standard kinase testing conditions and techniques were employed. IC50 values of compounds against TGF-ß kinase was determined by LanthaScreen™ Terbium Labeled TR-FRET assay. Kinase assays were performed in 1X kinase buffer (# PV6135, Invitrogen, Life Technologies Grand Island, N.Y.) where total reaction volume was 10 μL in low-volume 384-well plates (#4511, Corning). Serially diluted compounds (3-fold) were incubated with TGF-β kinase (6 nM) for 10 min, following which a mixture of ATP (10 μM) (# A1852, Sigma, St-Louis, Mo.) and fluorescent-PolyGT substrate (200 nM); Cat # PV3610, Invitrogen, Life Technologies Grand Island, N.Y.) was added and incubated in dark at room temperature for 1 h. After 1 h, 10 μL stop solution containing Terbium labeled antibody (4 nM; Cat # PV3529, Invitrogen, Life Technologies Grand Island, N.Y.) and EDTA (# E5134, Sigma, St-Louis, Mo.; 20 mM) in TR-FRET dilution buffer (Cat # PV3574, Invitrogen, Life Technologies Grand Island, N.Y.) was added. Readings were taken in a Synergy Neo Plate reader (BioTek, Winooski) at single excitation of 340 nm and Dual emission at 495 nm and 520 nm respectively.
The % activity of test samples was calculated as (Sample-Min)×100/(Max −Min). [Max: DMSO control, complete reaction with enzyme with DMSO and Min: No enzyme with DMSO]. Percent inhibition (100-% activity) was fitted to the “four-parameter logistic model” in XLfit for determination of IC50 values.

IC50	SMILES
2 to 5 µM	C[C@@H](CO)NC(=O)c1cnccc1Nc1cc(-c2cc(Cl)ccc2F)c(=O)n2c1N(C)CC2 [Compound 1.22, (S)-4-((6-(5-chloro-2-fluorophenyl)-1-methyl-5-oxo-1,2,3,5-tetrahydroimidazo[1,2-a]pyridin-8-yl)amino)-N-(1-hydroxypropan-2-yl)nicotinamide]
≤ 0.5 µM	CCc1[nH]c(=O)c(-c2ccc(F)c(Cl)c2)cc1Nc1ccnc2ccncc12 [Compound 1.87, 5-((1,6-naphthyridin-4-yl)amino)-3-(3-chloro-4-fluorophenyl)-6-ethylpyridin-2(1H)-one]
2 to 5 µM	CC(C)c1[nH]c(=O)c(-c2ccccc2F)cc1Nc1ccncc1C(=O)NC[C@H](C)O [Compound 1.3, (S)-4-((5-(2-fluorophenyl)-2-isopropyl-6-oxo-1,6-dihydropyridin-3-yl)amino)-N-(2-hydroxypropyl)nicotinamide]
0.5 to 2 µM	CC(C)c1[nH]c(=O)c(-c2ccsc2)cc1Nc1ccnc2ccncc12 [Compound 1.80, 5-((1,6-naphthyridin-4-yl)amino)-6-isopropyl-3-(thiophen-3-yl)pyridin-2(1H)-one]
> 5 µM	CC(C)c1[nH]c(=O)c(-c2cc(Cl)ccc2F)cc1Nc1ccnc(NS(C)(=O)=O)c1 [Compound 1.63, N-(4-((5-(5-chloro-2-fluorophenyl)-2-isopropyl-6-oxo-1,6-dihydropyridin-3-yl)amino)pyridin-2-yl)methanesulfonamide]
≤ 0.5 µM	CC(C)c1[nH]c(=O)c(-c2cc(Cl)ccc2F)cc1Nc1ccnc(NC(=O)CN2CCCC2)c1 [Compound 1.47, N-(4-((5-(5-chloro-2-fluorophenyl)-2-isopropyl-6-oxo-1,6-dihydropyridin-3-yl)amino)pyridin-2-yl)-2-(pyrrolidin-1-yl)acetamide]
> 5 µM	C[C@@H](O)CNC(=O)c1cnccc1Nc1cc(-c2cc(Cl)ccc2F)c(=O)n2c1N(C)CC2 [Compound 1.24, (R)-4-((6-(5-chloro-2-fluorophenyl)-1-methyl-5-oxo-1,2,3,5-tetrahydroimidazo[1,2-a]pyridin-8-yl)amino)-N-(2-hydroxypropyl)nicotinamide]
0.5 to 2 µM	CC(C)c1[nH]c(=O)c(-c2ccc(F)c(Cl)c2)cc1Nc1ncnc2c1CC(=O)N2 [Compound 1.85, 4-((5-(3-chloro-4-fluorophenyl)-2-isopropyl-6-oxo-1,6-dihydropyridin-3-yl)amino)-5,7-dihydro-6H-pyrrolo[2,3-d]pyrimidin-6-one]
> 5 µM	CC(C)c1[nH]c(=O)c(-c2cc(Cl)ccc2F)cc1Nc1ccnc(NC(=O)C(C)(C)C)c1 [Compound 1.49, N-(4-((5-(5-chloro-2-fluorophenyl)-2-isopropyl-6-oxo-1,6-dihydropyridin-3-yl)amino)pyridin-2-yl)pivalamide]
> 5 µM	CC(C)c1[nH]c(=O)c(-c2cc(Cl)ccc2F)cc1Nc1ccnc(NC(=O)C2CC2)c1 [Compound 1.45, N-(4-((5-(5-chloro-2-fluorophenyl)-2-isopropyl-6-oxo-1,6-dihydropyridin-3-yl)amino)pyridin-2-yl)cyclopropanecarboxamide]
0.5 to 2 µM	CC(C)c1[nH]c(=O)c(-c2cc(Cl)ccc2F)cc1Nc1ccncc1C(=O)N[C@@H](C)CO [Compound 1.6]
> 5 µM	CC(=O)Nc1cc(Nc2cc(-c3ccccc3CO)c(=O)[nH]c2C(C)C)ccn1 [Compound 1.53, N-(4-((5-(2-(hydroxymethyl)phenyl)-2-isopropyl-6-oxo-1,6-dihydropyridin-3-yl)amino)pyridin-2-yl)acetamide]
≤ 0.5 µM	CC(C)c1[nH]c(=O)c(-c2cc(Cl)ccc2F)cc1Nc1c(F)cnc2[nH]ccc12 [Compound 1.57, 3-(5-chloro-2-fluorophenyl)-5-((5-fluoro-1H-pyrrolo[2,3-b]pyridin-4-yl)amino)-6-isopropylpyridin-2(1H)-one]
> 5 µM	CN(C)c1[nH]c(=O)c(-c2cc(Cl)ccc2F)cc1Nc1ccncc1C(=O)NC(CO)CO [Compound 1.11]
2 to 5 µM	Cc1cc(-c2cc(Nc3ncnc4c3CC(=O)N4)c(C(C)C)[nH]c2=O)ccc1F [Compound 1.82, 4-((5-(4-fluoro-3-methylphenyl)-2-isopropyl-6-oxo-1,6-dihydropyridin-3-yl)amino)-5,7-dihydro-6H-pyrrolo[2,3-d]pyrimidin-6-one]
2 to 5 µM	CN(C)c1[nH]c(=O)c(-c2cc(Cl)ccc2F)cc1Nc1ccncc1F [Compound 1.41, 3-(5-chloro-2-fluorophenyl)-6-(dimethylamino)-5-((3-fluoropyridin-4-yl)amino)pyridin-2 (1H)-one]
≤ 0.5 µM	CC(C)c1[nH]c(=O)c(-c2ccc(F)c(Cl)c2)cc1Nc1ccnc2[nH]ncc12 [Compound 1.84, 5-((1H-pyrazolo[3,4-b]pyridin-4-yl)amino)-3-(3-chloro-4-fluorophenyl)-6-isopropylpyridin-2(1H)-one]
2 to 5 µM	C[C@@H](CO)NC(=O)c1cnccc1Nc1cc(-c2cc(Cl)ccc2F)c(=O)n(C)c1N(C)C [Compound 1.17, (S)-4-((5-(5-chloro-2-fluorophenyl)-2-(dimethylamino)-1-methyl-6-oxo-1,6-dihydropyridin-3-yl)amino)-N-(1-hydroxypropan-2-yl)nicotinamide]
> 5 µM	CC(C)c1[nH]c(=O)c(-c2cc(Cl)ccc2F)cc1Nc1ccnc(C(C)(C)C#N)c1 [Compound 1.60, 2-(4-((5-(5-chloro-2-fluorophenyl)-2-isopropyl-6-oxo-1,6-dihydropyridin-3-yl)amino)pyridin-2-yl)-2-methylpropanenitrile]
2 to 5 µM	Cc1cc(-c2cc(Nc3ccnc4ccncc34)c(C(C)C)[nH]c2=O)ccc1F [Compound 1.89, 5-((1,6-naphthyridin-4-yl)amino)-3-(4-fluoro-3-methylphenyl)-6-isopropylpyridin-2(1H)-one]
> 5 µM	CN(C)c1[nH]c(=O)c(-c2cc(Cl)ccc2F)cc1Nc1ccncc1 [Compound 1.14, 3-(5-chloro-2-fluorophenyl)-6-(dimethylamino)-5-(pyridin-4-ylamino)pyridin-2(1H)-one]
2 to 5 µM	Cc1cnc(Nc2cc(Nc3cc(-c4cc(Cl)ccc4F)c(=O)[nH]c3C3CC3)ccn2)s1 [Compound 1.77, 3-(5-chloro-2-fluorophenyl)-6-cyclopropyl-5-((2-((5-methylthiazol-2-yl)amino)pyridin-4-yl)amino)pyridin-2(1H)-one]
2 to 5 µM	CN(C)c1[nH]c(=O)c(-c2cc(Cl)ccc2F)cc1Nc1ccncc1C(=O)NC1CC1 [Compound 1.30, 4-((5-(5-chloro-2-fluorophenyl)-2-(dimethylamino)-6-hydroxypyridin-3-yl)amino)-N-cyclopropylnicotinamide]
> 5 µM	CN(C)c1[nH]c(=O)c(-c2cc(Cl)ccc2F)cc1Nc1ccnc2ccccc12 [Compound 1.16, 3-(5-chloro-2-fluorophenyl)-6-(dimethylamino)-5-(quinolin-4-ylamino)pyridin-2(1H)-one]
> 5 µM	CC(C)c1[nH]c(=O)c(-c2cc(Cl)ccc2F)cc1Nc1ccnc(N)c1 [Compound 1.44, 5-((2-aminopyridin-4-yl)amino)-3-(5-chloro-2-fluorophenyl)-6-isopropylpyridin-2(1H)-one]
≤ 0.5 µM	CC(=O)Nc1cc(Nc2cc(-c3cccc(Cl)c3)c(=O)[nH]c2C(C)C)ccn1 [Compound 1.81, N-(4-((5-(3-chlorophenyl)-2-isopropyl-6-oxo-1,6-dihydropyridin-3-yl)amino)pyridin-2-yl)acetamide]
2 to 5 µM	CN(C)c1[nH]c(=O)c(-c2cc(Cl)ccc2F)cc1Nc1ccncc1C1=NCCN1 [Compound 1.35, 3-(5-chloro-2-fluorophenyl)-5-((3-(4,5-dihydro-1H-imidazol-2-yl)pyridin-4-yl)amino)-6-(dimethylamino)pyridin-2(1H)-one]
≤ 0.5 µM	CNC(=O)c1cnccc1Nc1cc(-c2cc(Cl)ccc2F)c(=O)[nH]c1SC [Compound 1.39, 4-((5-(5-chloro-2-fluorophenyl)-2-(methylthio)-6-oxo-1,6-dihydropyridin-3-yl)amino)-N-methylnicotinamide]
> 5 µM	Cc1cccc(-c2cc(Nc3ccncc3C(=O)NC[C@H](C)O)c(N(C)C)[nH]c2=O)n1 [Compound 1.27, (S)-4-((6′-(dimethylamino)-6-methyl-2′-oxo-1′,2′-dihydro-[2,3′-bipyridin]-5′-yl)amino)-N-(2-hydroxypropyl)nicotinamide]

— patent publication US20200247812A1 (Integral Biosciences Private Limited, priority 2018, published 2020)
